{"source": "paper PMC11040670", "about": "“Mechanistic and Kinetic Insights into Cellular Uptake of Biomimetic Dinitrosyl Iron Complexes and Intracellular Delivery of NO for Activation of Cytoprotective HO-1” (JACS Au, 2024)", "key": {"HMOX1 gene": {"system": "HMOX1 gene", "test": "Activation of HMOX1/HO-1, stated jointly for MSC/N2a/HCEC (incl. PTIO/ODQ)", "type": "cell-based", "experimental": "After treatment of (1) 100 μM of DNIC–COOH to MSC, (2) 100 μM of DNIC–COOH to N2a, (3) 75 μM of DNIC–COOH to HCEC, (4) 2.5 μM of DNIC–COOMe to MSC, (5) 10 μM of DNIC–COOMe to N2a, and (6) 1 μM of DNIC–COOMe to HCEC, respectively, the total RNA of the treated cells was extracted using TRIzol Reagent (Thermo Fisher Scientific) in order to assess the time-dependent change in the mRNA level of HO-1. After the synthesis of complementary DNA with the High-Capacity Reverse Transcription Kit, qPCR was conducted using Power SYBR Green PCR Master Mix with the StepOnePlus Real-Time PCR System (Thermo Fisher Scientific). The primer sequences were as follows: HMOX1 forward 5′-[…]-3′ and reverse 5′-[…]-3′; RPL13A forward 5′-[…]-3′ and reverse 5′- […]-3′; GAPDH forward 5′-[…]-3′ and reverse 5′-[…]-3′. The relative mRNA levels of target genes were determined by a comparative threshold cycle method and normalized to that of RPL13A (or GAPDH). The mRNA level of HO-1 in the MSC, N2a, and HCEC cells, respectively, that received the (1) sequential treatments of 1H-[1,2,4]oxadiazolo-[4,3-a]quinoxalin-1-one (ODQ, 10 μM for 1 h) and DNIC–COOH (100 μM in MSC for 3 h, 100 μM in N2a for 10 h, and 75 μM in HCEC for 6 h) or (2) cotreatment of 2-phenyl-4,4,5,5-tetramethylimidazoline-1-oxyl-3-oxide ([…]) and DNIC–COOH (100 μM in MSC for 3 h, 100 μM in N2a for 10 h, and 75 μM in HCEC for 6 h) was also evaluated under a similar procedure."}, "deoxyMb": {"system": "deoxyMb", "design": "method as in PMID 37533298", "details": "dinuclear DNIC, no Cys; cited from earlier work"}, "metMb": {"target": "T1, metMb (Equus caballus, UniProt P68082)", "T1 construct": "purchased Sigma", "T1 sequence (P68082 2-154 limits assumed)": "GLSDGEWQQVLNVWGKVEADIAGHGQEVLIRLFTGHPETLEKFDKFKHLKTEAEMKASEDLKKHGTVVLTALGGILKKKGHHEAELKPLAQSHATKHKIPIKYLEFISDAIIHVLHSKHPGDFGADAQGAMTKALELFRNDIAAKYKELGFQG", "design": "method as in PMID 37533298", "details": "dinuclear DNIC, no Cys; cited from earlier work"}, "HCEC": {"system": "HCEC", "test": "Cytoprotection of HCEC against H2O2 oxidative stress", "type": "cell-based, human", "details": "HCEC pretreated 24 h with 75 μM DNIC–COOH, then H2O2", "experimental": "Cell viability study of MSC, N2a, and HCEC cells with or without the treatment of DNIC–COOH was performed using a Cell Counting Kit-8 (IMT Formosa New Materials Co., Ltd., Taiwan) according to the manufacturer’s protocol. Briefly, cells were seeded into a 96-well plate at a density of 4 × 10^3 cells/well for MSC, 1 × 10^4 cells/well for N2a, and 8 × 10^3 cells/well for HCEC, respectively, and incubated overnight. On the next day, cells were treated with DNIC–COOH at different concentrations and incubated for 24 h. The culture medium was then removed before the cells were washed with DPBS. After addition of fresh medium containing CCK-8 solution to the cells and incubation for 1–3 h, the absorbance at 450 nm was then measured on a microplate reader (SpectraMax iD3, Molecular Devices, San Jose, CA) with a reference wavelength of 650 nm. […]\nTo investigate the capacity of DNIC preconditioning to protect the MSC cells against elevated oxidative stress, cells were pretreated with 2.5 μM of DNIC–COOMe or 100 μM of DNIC–COOH for 8 h before being incubated with 250 μM H2O2 for another 24 h. Cell viability was evaluated by live/dead staining or CCK-8 assay. In a similar manner, DNIC-induced cytoprotective effect in HCECs was evaluated through pretreatment of 1 μM of DNIC–COOMe or 75 μM of DNIC–COOH for 24 h."}}, "data": [{"smiles": "O=[N][Fe]1([N]=O)[SH](CCC(=O)O)[Fe]([N]=O)([N]=O)[SH]1CCC(=O)O", "note": "(stereo not shown) [DNIC–COOH, [(NO)2Fe(μ-SCH2CH2COOH)2Fe(NO)2]]", "values": [{"measurement": "activation of cytoprotective HO-1", "setting": "HMOX1 gene; at t = 3–10 h (abstract)", "value": "50–150 fold change"}, {"measurement": "effect on transcriptional activation of HMOX1 gene by DNIC–COOH", "setting": "HMOX1 gene; cotreatment of PTIO to MSC/HCEC", "value": "no significant perturbation"}, {"measurement": "effect on transcriptional activation of HMOX1 gene by DNIC–COOH", "setting": "HMOX1 gene; higher concentration of PTIO (100 μM) to N2a", "value": "reduced transcriptional activation"}, {"measurement": "effect on transcriptional activation of HMOX1 gene by DNIC–COOH", "setting": "HMOX1 gene; pretreatment of ODQ to MSC/N2a/HCEC", "value": "no significant perturbation"}, {"measurement": "nitrosylation of the Fe2+-porphyrin center in deoxyMb", "setting": "deoxyMb", "value": "efficient nitrosylation"}, {"measurement": "reactivity toward the Fe3+-porphyrin center in metMb", "setting": "metMb", "value": "inert"}, {"measurement": "survival under mimic oxidative stress condition", "setting": "HCEC", "value": "enhanced survival"}]}]}
